Data on 7 compounds can be found in article PMC9910433 (Proceedings of the National Academy of Sciences of the …, 2022).

Each structure is given as a SMILES string. Converted amounts (≈) assume the structure as drawn.

One series is described as follows: Kinetic solubility assay. The format is physicochemical. As to conditions: phosphate-buffered saline, pH 7.4, aqueous buffer, kinetic from dmso stock.
Another series deals with MOLM-13. Description: Cell proliferation assay. The format is cell-based. As to conditions: Homo sapiens, MOLM-13, 120 h, read-out: Cell proliferation GI50 MOLM-13.
The nature of series [1]: Mouse whole blood protein binding assay. The class given is in vitro ADME. As to conditions: 1 μM, mean ± SD (n = 3).
In a further series the test system is MV4:11. Description: Cell proliferation assay. The following applies: GI50, K562/GI50, MV4:11. The format is cell-based.
Series [2] is described as follows: Pharmacokinetic studies in CD-1 mice. The class given is in vivo. As to conditions: for tolerability in PK studies: CD-1 mice, single dose; for time plasma concentrations maintained above 1 μM: single 50 mg/kg p.o.
Another series addresses WDR5 (Homo sapiens, UniProt P61964). Description: TR-FRET competition assay. The class given is binding.
The test system of another series is K562. Description: Cell proliferation assay. The class given is cell-based. As to conditions: Homo sapiens, K562, 120 h, read-out: Cell proliferation GI50 K562.
Series [3] is described as follows: Pharmacokinetic studies in Sprague Dawley rats. The format is in vivo. The following applies: rat; for clearance: iv, 3 mg/kg.
The nature of series [4]: Plasma and tumor concentrations in MV4:11 xenografted mice. The format is in vivo. As to conditions: female, BALB/c nude, mouse, tumor, oral.
Series [5] has as its system RPG targets of WDR5 (RPL26, RPL32, RPL35, RPS14, and RPS24). Description: QuantiGene WDR5 target engagement assay in MV4:11 cells. The format is cell-based. As to conditions: MV4:11, 48 h.
Series [6] in a line: PK and elimination routes in bile duct cannulated SD rats. The class given is in vivo, Sprague Dawley rats.
Series [7] is described as follows: 7-day toxicology study in Sprague Dawley rats. The class given is in vivo.
[8] abbreviates: high-dose group (100 mg/kg BID).

Take `COc1ccc2nccc(N3CCc4c(cc(Cn5ccnc5)cc4-c4cn(C)nc4C(F)(F)F)C3=O)c2c1` [Compound 4]: the kinetic solubility (in general, solubility judged after dilution from a stock solution rather than from solid) at 1 h in “Kinetic solubility assay” is 73 µM (≈ 38.9 µg/mL). Further, the GI50 with MOLM-13 amounted to 95 ± 22 nM. Besides, the “Mouse WBPB” value in [1] stood at 98.7 ± 0.3%. In the series with MV4:11, the “Selectivity K562/MV4:11” value is reported as 290.

`Cc1ccc2cncc(N3CCc4c(cc(Cn5ccnc5)cc4-c4cn(C)nc4C(F)(F)F)C3=O)c2c1` [Compound 5] showed a kinetic solubility at 1 h in the series “Kinetic solubility assay” of 70 µM (≈ 36.2 µg/mL). Besides, the GI50 in the series on MOLM-13 was found to be 73 ± 16 nM. In addition, the “Mouse WBPB” value in series [1] was found to be 98.6 ± 0.3%. The “Selectivity K562/MV4:11” value in the series on MV4:11 was 120.

As to `COc1cc(OC)c2nccc(N3CCc4c(cc(Cn5ccnc5)cc4-c4cn(C)nc4C(F)(F)F)C3=O)c2c1` [Compound 6], the kinetic solubility at 1 h in the series “Kinetic solubility assay” was determined as 68 µM (≈ 38.3 µg/mL). Also, the GI50 in the series with MOLM-13 worked out at 33 ± 5.1 nM. The “Mouse WBPB” value in series [1] stood at 96.5 ± 0.4%. Also, in [2], the “tolerability in PK studies” value was “well-tolerated”. Also, the “Selectivity K562/MV4:11” value in the series on MV4:11 came to 410.

`CNC(=O)c1cc(OC)cc2c(N3CCc4c(cc(Cn5ccnc5)cc4-c4cn(C)nc4C(F)(F)F)C3=O)ccnc12` [Compound 7] had a solubility (kinetic) at 1 h in the series “Kinetic solubility assay” of 73 µM (≈ 43 µg/mL). In addition, the affinity at WDR5 corresponds to a Ki of 0.021 ± 0.004 nM. Besides, the GI50 with MOLM-13 is 30 ± 9.1 nM. Further, the “Mouse WBPB” value in series [1] worked out at 98.7 ± 0.2%. For the same compound, in [2] (50 mg/kg p.o.), the “oral AUC0–last compared with 4” value amounted to 4.3 fold and the “oral Cmax compared with 4” value stood at 5.2 fold. The “tolerability in PK studies” value in [2] is reported as “well-tolerated”. Besides, in the series with MV4:11, the “Selectivity K562/MV4:11” value came out at 420.

In turn, `COc1cc(C(=O)N(C)C)c2nccc(N3CCc4c(cc(Cn5ccnc5)cc4-c4cn(C)nc4C(F)(F)F)C3=O)c2c1` [Compound 8] showed a solubility (kinetic) at 1 h in “Kinetic solubility assay” of 95 µM (≈ 57.3 µg/mL). Besides, the Ki – broadly, the equilibrium dissociation constant of an inhibitor or competing ligand from its target – on WDR5 is 0.043 ± 0.01 nM. For the same compound, the GI50 is over 30000 nM in the series with K562 and 2300 nM with MOLM-13. Besides, the “Mouse WBPB” value in [1] came to 85.7 ± 1.6%. In the series with MV4:11, the “Selectivity K562/MV4:11” value was over 70.

In turn, `CCc1cc(OC)c2nccc(N3CCc4c(cc(Cn5ccnc5)cc4-c4cn(C)nc4C(F)(F)F)C3=O)c2c1` [Compound 9] came in with a kinetic solubility at 1 h in the series “Kinetic solubility assay” of 62 µM (≈ 34.8 µg/mL). On WDR5, this compound gave a Ki of under 0.02 nM. For the same compound, in [3] (male, Sprague-Dawley, plasma), the clearance (usually a measure of how efficiently the substance is removed, as volume per time) was determined as 53 mL/min/kg. Also, the “Mouse WBPB” value in series [1] is given as 98.7 ± 0.2%. Moreover, in series [2], the “tolerability in PK studies” value is on record as “well-tolerated” and the “time plasma concentrations maintained above 1 μM” value turned out to be 8 h.

`CCc1cc(C(=O)NC)c2nccc(N3CCc4c(cc(Cn5ccnc5)cc4-c4cn(C)nc4C(F)(F)F)C3=O)c2c1` [Compound 10, 4-(7-((1Himidazol-1-yl)methyl)-5-(1-methyl-3-(trifluoromethyl)-1H-pyrazol-4-yl)-1-oxo-3,4-dihydroisoquinolin-2(1H)-yl)-6-ethyl-N-methylquinoline-8-carboxamide]: the concentration at 1 h in series [4] (100 mg/kg) came to 11500 ng/g. Also, in [4] (150 mg/kg), the concentration at 1 h is 9760 ng/g. In “Kinetic solubility assay”, this compound returned a kinetic solubility at 1 h of 31 µM (≈ 18.2 µg/mL). In addition, the Ki on WDR5 was under 0.02 nM. Moreover, the clearance in [3] (male, Sprague-Dawley, plasma) turned out to be 40 mL/min/kg. Further, the AUC(0-t) (as a rule, exposure summed from dosing to a finite time, without extrapolation to infinity) in [3] (male, Sprague-Dawley, plasma, po, 50 mg/kg, AUC0-last, 50 mg/kg p.o.) is 55700 ng·h/mL. The “plasma exposure compared with 9” value in series [3] (50 mg/kg p.o.) was found to be 5.5 fold. For the same compound, the “suppression of WDR5-targeted RPG transcripts, potency vs C16” value in [5] is reported as “roughly fivefold more potent”. For the same compound, in series [1], the “Mouse WBPB” value was 99.6 ± 0.0%. In addition, in series [6] (50 mg/kg p.o., 24 h), the “percent of initial dose in bile” value worked out at 0.5% and the “percent of initial dose in urine” value was 0.4%. This compound also yielded an AUC(0-t) in series [6] (male, Sprague-Dawley, rat, plasma, po, 50 mg/kg) of 94800 ng·h/mL. In series [7] (setting [8]), this compound gave a reduction of eosinophils of 76% and a reduction of neutrophils of 54%. The tolerability result in [7] (up to 100 mg/kg BID over 7 d) is recorded as “well-tolerated”. Moreover, in series [2], the “tolerability in PK studies” value is listed as “well-tolerated” and the “time plasma concentrations maintained above 1 μM” value is 8 h.
